Measurements: article PMC8894159, “Paltusotine, a novel oral once-daily nonpeptide SST2 receptor agonist, suppresses GH and IGF-1 in healthy volunteers” (Pituitary, 2022)

Columns and labels:
[1] = system: GHRH-stimulated GH secretion; assay: GHRH challenge: suppression of GHRH-stimulated GH secretion, single-dose cohorts; type: in vivo, human
Procedure: To assess the ability of paltusotine to suppress GHRH-stimulated GH secretion, a GHRH challenge was performed in single-dose cohorts S1, S2, S3, S4, and S5 (oral solution) (Fig. 1). Recombinant human GHRH(1-44)-NH2 (somatorelin; Ferring Pharmaceuticals, Parsippany, NJ) 50 µg was administered intravenously 2 h after paltusotine (or placebo) on Day 1 and at approximately the same time on Day -1 (± 10 min). A blood sample for serum GH was collected at − 60 min, − 30 min, immediately before GHRH challenge, and at 15, 30, 45, 60, 90, and 120 min post-challenge. Serum GH was also assessed in the M1 cohort. Serum GH sample was collected on Day - 1, on Days 1 and 7 (pre-dose, 0.5, 1, 2, 3, 4, 6, 8, 10, 12 and 18 h post-dose), Days 2–6 (pre-dose and 12 h post-dose), and Days 8, 10 and 14 (at approximately the same time as dosing).
(§1) Serum was isolated, stored, and analyzed for IGF-1 and GH according to the instructions from the manufacturer (IGF-1 and human GH diagnostic assay, Siemens Immulite® 1000 systems).
(§2) The study endpoints were effects of paltusotine on GHRH-stimulated GH and IGF-1 (pharmacodynamics), pharmacokinetics (including formulation and food effects), safety, and tolerability. For the analysis of effects paltusotine on GHRH-stimulated GH and IGF-1, the pharmacodynamic population included all randomized participants in the 1.25 mg, 2.5 mg, 5 mg, 10 mg, and 20 mg (S1, S2, S3, S4A, and S5) single-dose cohorts who received any amount of study drug and had at least one post-baseline pharmacodynamic assessment. The percent change in serum GH area under the curve (AUC) from 0 to 2 h (AUC0-2) from baseline was compared using ANOVA between each dosing cohort and all participants who received placebo. The single-dose pharmacodynamic population included 39 participants from the S1, S2, S3, S4, and S5 cohorts (paltusotine n = 29; placebo n = 10). […] For multiple-dose cohorts, only participants who received all doses were included. A change in IGF-1 levels 12 h post last dose from baseline (average of 3–4 measurements) were compared by ANOVA between each dosing cohort and all participants who received placebo. The multiple-dose pharmacodynamic population included 31 participants from the M1, M2, M3, and M4 cohorts (paltusotine n = 21; placebo n = 10).

[2] = system: serum IGF-1; assay: Serum IGF-1 suppression in healthy volunteers; type: in vivo, human
Procedure: For assessment of serum IGF-1, in the single-dose cohorts, serum IGF-1 was collected on Day - 1 and Day 1 (pre-dose to 18 h post-dose), and Day 2 and 7 (at approximately the same time GHRH was administered on Day 1). In the M1 cohort, IGF-1 samples were obtained pre-dose, 6 and 12 h post-dose on Days - 1, 1 and 7; pre-dose and 12 h post-dose on Days 2–6; and at approximately the same time as dosing on Days 8, 10, and 14. For M2 and subsequent cohorts, IGF-1 samples were obtained pre-dose, 6 and 12 h post-dose on Days - 1, 1 and 10; pre-dose and 12 h post-dose on Days 2–9; and at approximately the same time as dosing on Days 11, 14, and 21.
as §1, §2

[3] = Safety and tolerability, single-dose cohorts; type: in vivo, human
Procedure: Adverse events and concomitant medications were recorded. Laboratory samples for clinical chemistry, hematology, coagulation tests, and urinalysis were collected under fasted conditions. Participants who discontinued prematurely attended an early termination visit.
For the safety analysis, adverse events were coded using the Medical Dictionary for Regulatory Activities (MedDRA® Version 20.0). Adverse events were grouped by preferred terms. Treatment-emergent adverse events (TEAEs) were summarized with descriptive statistics.

[4] = system: SST2; design: method as in ref 13 = [13]; 13. Betz SF Markison S Kusnetzow AK Athanacio JD Rico-Bautista E Madan A Suppression of growth hormone and insulin-like growth factor 1 in rats after oral administration of CRN00808, a small molecule; conditions: cited from earlier work
[5] = plasma concentration-response model, 1.25-20 mg single doses
[6] = single-dosing, safety population N = 41

In the case of `Cl.N#Cc1cccc(-c2ccc3ncc(-c4cc(F)cc(F)c4)c(N4CCC(N)CC4)c3c2)c1O` [paltusotine, 3-[4-(4-Aminopiperidin-1-yl)-3-(3,5-difluorophenyl)quinolin-6-yl]-2-hydroxybenzonitrile hydrochloride], the “mean peak GH concentration after GHRH challenge” value ([1]; 10 mg single dose, Day 1, GHRH alone on Day -1 gave 21 ng/mL) is reported as 1.7 ng/mL, the “suppression of stimulated GH AUC0-2 h” value ([1]; 10 mg single dose, placebo 15%) is reported as 91% and the EC50 ([1]; Homo sapiens, read-out: paltusotine concentration for 50% GH suppression (EC50), plasma concentration-response model, 1.25-20 mg single doses) is reported as ~7.9 ng/mL. For the same molecule, the “paltusotine concentration for 50% GH suppression (EC50)” value [1, 5] was 7.9 ng/mL, the “paltusotine concentration for 80% GH suppression (EC80)” value [1, 5] was ~29 ng/mL and the IGF-1 suppression ([2]; 5 mg once daily, Day 7, relative to baseline) was 19%. For the same molecule, the “additional time IGF-1 remained suppressed after the final dose” value ([2]; 10 mg cohort, final dose on Day 10) was 4 days, the IGF-1 suppression ([2]; 10 mg once daily, Day 10, relative to baseline) was 37% and the IGF-1 suppression ([2]; 20 mg once daily, Day 10, relative to baseline) was 37%. For the same molecule, the IGF-1 suppression ([2]; 30 mg once daily, Day 10, relative to baseline) was 30%, the “maximal degree of IGF-1 suppression” value ([2]; multiple-dose cohorts) was “up to 37%” and the “time to near-maximum IGF-1 suppression” value ([2]; once-daily dosing (10 mg cohort illustrated)) was “approximately 7 days”. The “serum IGF-1 change after a single dose” value ([2]; single 1.25 to 20 mg dose, compared to Day -1 or placebo) was “little to no change”, the “life-threatening events or deaths” value ([3]; all cohorts) was “No life-threatening events or deaths occurred” and the tolerability ([3]; single-dose administration) was “well tolerated”. The “share of TEAEs occurring at a dose level of 10 mg or higher” value ([3]; single-dose cohorts) was 64%, the “Abdominal distension (TEAE)” value [3, 6] was 2 (4.9%) n (%) and the “Abdominal pain (TEAE)” value [3, 6] was 2 (4.9%) n (%). For the same molecule, the “Abdominal pain upper (TEAE)” value [3, 6] was 2 (4.9%) n (%), the “Back pain (TEAE)” value [3, 6] was 2 (4.9%) n (%) and the “Fatigue (TEAE)” value [3, 6] was 2 (4.9%) n (%). For the same molecule, the “Headache (TEAE)” value [3, 6] was 5 n (%), the “Hypoesthesia (TEAE)” value [3, 6] was 2 (4.9%) n (%) and the “Nausea (TEAE)” value [3, 6] was 2 (4.9%) n (%). For the same molecule, the “Participants with at least 1 TEAE” value [3, 6] was 28 (68.3%) n (%), the “Tension headache (TEAE)” value [3, 6] was 2 (4.9%) n (%) and the “Ventricular tachycardia (non-sustained) (TEAE)” value [3, 6] was 2 (4.9%) n (%). The “Headache (TEAE)” value ([3]; single-dosing, safety population N = 41, listed as Paltusotine) was 5 (12.2%) n (%), the “selectivity for SST2 over other somatostatin receptor subtypes” value [4] was > 4000 fold and the EC50 ([4]; read-out: SST2 agonist EC50) was 250 pM.
